Measurements from patent US6867284B1, “Peptide inhibitors of hepatitis C virus NS3 protease” (Istituto di Ricerche di Biologia Molecolare P. Angeletti …, priority 1998, dated 2005).

Target: T1, HCV NS3 protease (Hepatitis C virus genotype 1b, UniProt P26663)
T1 construct: an NS3/4A complex comprising the NS3 protease domain
Experiment: Inhibition of NS3 protease (HPLC cleavage assay, NS3/4A complex with Pep4AK, substrate peptide 4AB)
Type: biochemical
Details: Table 2 tetrapeptides and tripeptides; read-out: IC50

T1 sequence (P26663 1027-1208, other chains not shown): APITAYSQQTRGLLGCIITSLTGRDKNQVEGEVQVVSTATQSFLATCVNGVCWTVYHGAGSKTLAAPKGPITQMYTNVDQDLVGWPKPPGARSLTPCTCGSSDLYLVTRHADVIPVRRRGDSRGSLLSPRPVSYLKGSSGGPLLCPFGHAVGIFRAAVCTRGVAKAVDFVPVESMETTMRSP

SMILES	IC50 [nM]
CC[C@@H](C)[C@H](NC(=O)OC(C)(C)C)C(=O)N[C@@H](CC(C)C)C(=O)NC(CC(F)F)C(=O)C(=O)O (stereo partly shown) [Compound 5a]	700
CC(C)C[C@H](NC(=O)OC(C)(C)C)C(=O)N[C@@H](CC(C)C)C(=O)NC(CC(F)F)C(=O)C(=O)O (stereo partly shown) [Compound 5b]	1200
CC(C)C[C@H](NC(=O)[C@H](Cc1ccccc1)NC(=O)OC(C)(C)C)C(=O)NC(CC(F)F)C(=O)C(=O)O (stereo partly shown) [Compound 5c]	1500
CC(C)C[C@H](NC(=O)[C@@H](NC(=O)OC(C)(C)C)C(C)C)C(=O)NC(CC(F)F)C(=O)C(=O)O (stereo partly shown) [Compound 5d]	500
CC(C)C[C@H](NC(=O)[C@H](C)NC(=O)OC(C)(C)C)C(=O)NC(CC(F)F)C(=O)C(=O)O (stereo partly shown) [Compound 5f]	8900
CCCC[C@H](NC(=O)OC(C)(C)C)C(=O)N[C@@H](CC(C)C)C(=O)NC(CC(F)F)C(=O)C(=O)O (stereo partly shown) [Compound 5g]	1200
CCC[C@H](NC(=O)OC(C)(C)C)C(=O)N[C@@H](CC(C)C)C(=O)NC(CC(F)F)C(=O)C(=O)O (stereo partly shown) [Compound 5h]	1500
CC(C)C[C@H](NC(=O)[C@H](CCC(=O)OCc1ccccc1)NC(=O)OC(C)(C)C)C(=O)NC(CC(F)F)C(=O)C(=O)O (stereo partly shown) [Compound 5i]	5800
CC(C)C[C@H](NC(=O)[C@H](CCC(=O)O)NC(=O)OC(C)(C)C)C(=O)NC(CC(F)F)C(=O)C(=O)O (stereo partly shown) [Compound 5j]	330
CC(C)C[C@H](NC(=O)[C@H](CCC(N)=O)NC(=O)OC(C)(C)C)C(=O)NC(CC(F)F)C(=O)C(=O)O (stereo partly shown) [Compound 5k]	2100
CC(C)C[C@H](NC(=O)[C@H](CC(=O)OCc1ccccc1)NC(=O)OC(C)(C)C)C(=O)NC(CC(F)F)C(=O)C(=O)O (stereo partly shown) [Compound 5l]	3500
CC(C)C[C@H](NC(=O)[C@H](CC(=O)O)NC(=O)OC(C)(C)C)C(=O)NC(CC(F)F)C(=O)C(=O)O (stereo partly shown) [Compound 5m]	1600
CC(C)C[C@H](NC(=O)[C@@H](NC(=O)OC(C)(C)C)C(C)(C)C)C(=O)NC(CC(F)F)C(=O)C(=O)O (stereo partly shown) [Compound 5n]	720
CC(C)(C)OC(=O)N[C@@H](CCC(=O)O)C(=O)N[C@@H](CC(F)F)C(=O)NC(CC(F)F)C(=O)C(=O)O (stereo partly shown) [Compound 5o]	300
CC(C)C[C@H](NC(=O)[C@H](C/C=C/c1ccccc1)NC(=O)OC(C)(C)C)C(=O)NC(CC(F)F)C(=O)C(=O)O (stereo partly shown) [Compound 5p]	2400
CC(C)CC[C@H](NC(=O)OC(C)(C)C)C(=O)N[C@@H](CC(C)C)C(=O)NC(CC(F)F)C(=O)C(=O)O (stereo partly shown) [Compound 5q]	1600
CC(C)C[C@H](NC(=O)[C@H](Cc1ccc(Cl)c(Cl)c1)NC(=O)OC(C)(C)C)C(=O)NC(CC(F)F)C(=O)C(=O)O (stereo partly shown) [Compound 5r]	5800
CC(C)C[C@H](NC(=O)[C@H](Cc1cccs1)NC(=O)OC(C)(C)C)C(=O)NC(CC(F)F)C(=O)C(=O)O (stereo partly shown) [Compound 5s]	3800
CC(C)C[C@H](NC(=O)[C@H](Cc1cccc(Br)c1)NC(=O)OC(C)(C)C)C(=O)NC(CC(F)F)C(=O)C(=O)O (stereo partly shown) [Compound 5t]	2500
CC(C)C[C@H](NC(=O)[C@@H](NC(=O)OC(C)(C)C)C1CCCC1)C(=O)NC(CC(F)F)C(=O)C(=O)O (stereo partly shown) [Compound 5u]	400
CC(C)COC(=O)N[C@@H](CCC(=O)O)C(=O)N[C@@H](CC(C)C)C(=O)NC(C=O)CC(F)F (stereo partly shown) [Compound 6a]	26000
CC(C)C[C@H](NC(=O)[C@@H](NC(=O)OCc1ccccc1)C(C)C)C(=O)NC(C=O)CC(F)F (stereo partly shown) [Compound 6b]	50000
